In patent US11229657B2, “Targeting hypoxic cancer stem cells (CSCs) with doxycycline: implications for improving anti-angiogenic therapy” (LUNELLA BIOTECH, INC., priority 2017, dated 2022):
Where two headings read alike, the source gives them in different places. Values belong to the compound of their own block, whether it stands above or below them.

Legend:
Format in all cases: cell-based
[1] = tested on: MCF7 cells; experiment: Mammosphere formation assay (CSC activity/propagation); settings: for IC50: Homo sapiens, MCF7, Valproic acid-augmented conditions, read-out: IC-50, Valproic acid-augmented CSC propagation; for IC50 / Valproic acid-augmented CSC propagation (mammosphere formation): FIG. 12C; for Valproic acid-augmented CSC propagation (mammosphere formation): glycolysis inhibitors; for basal and Valproic acid-augmented CSC propagation (mammosphere formation): FIG. 12A-B
Protocol: Briefly, a single cell suspension of MCF7 cells previously exposed to normoxia (21% O2) or hypoxia (1% O2) for 6 h, 72 h or 96 h was prepared using enzymatic (lx Trypsin-EDTA, Sigma Aldrich) and manual disaggregation (25-gauge needle). Cells were plated at a density of 500 cells/cm^2 in mammosphere medium (DMEM-F12/B27/20-ng/ml EGF/PenStrep) in nonadherent conditions, in culture dishes coated with (2-hydroxyethylmethacrylate) (poly-HEMA, Sigma), in the presence of treatments. Cells were grown for 5 days and maintained in a humidified incubator at 37° C. at an atmospheric pressure in 5% (v/v) carbon dioxide/air. After five days of culturing, spheres greater than 50 μm in diameter were counted using an eye piece graticule, and the percentage of cells plated which formed spheres was calculated. Mammosphere assays were performed in triplicate and repeated three times independently.

[2] = tested on: CSC propagation; experiment: IC-50s of metabolic agents for inhibiting CSC propagation (Table 3); settings: read-out: IC-50 for inhibiting CSC propagation
Protocol: Glycolysis is required to provide additional TCA cycle intermediates for the mitochondrial processing of Acetyl-CoA. […] Briefly, 2-deoxy-D-glucose (2-DG) or ascorbic acid were dissolved in culture medium. […] Bonuccelli et al. Oncotarget, 8: 20667-20678 (2017). […] 15, 2017, and Patent Cooperation Treaty (PCT) Patent Application PCT/US2018/022403, filed Mar. 14, 2018, the entireties of which are incorporated herein by reference; mitoketoscins, such as those disclosed in U.S. Provisional Patent Application No. 62/524,829, filed Jun. 26, 2017, the entirety of which is incorporated herein by reference; mitoflavoscins, such as those disclosed in U.S. Provisional Patent Application No. 62/576,287, filed Oct. 24, 2017, the entirety of which is incorporated herein by reference; TPP-compounds (e.g., 2-butene-1,4-bis-TPP), such as those disclosed in U.S. Provisional Patent Application No. 62/590,432, filed Nov. 24, 2017, the entirety of which is incorporated herein by reference; mDIVI1, such as those disclosed in U.S. Provisional Patent Application No. 62/608,065, filed Dec. 20, 2017, the entirety of which is incorporated herein by reference; CAPE (caffeic acid phenyl ester); antimitoscins, such as those disclosed in 62/508,702, filed May 19, 2017, the entirety of which is incorporated herein by reference; repurposcins such as those disclosed in U.S. Provisional Patent Application No. 62/593,372, filed Dec. 1, 2017, the entirety of which is incorporated herein by reference; other known mitochondrial inhibitors.

[3] = tested on: MCF7 cells; experiment: ALDH activity by FACS (ALDEFLUOR kit); settings: 2.5 mM; FIGS. 11C-D
Protocol: The present approach further includes methods of analyzing the effects of hypoxia on CSCs by examining relative changes of CSC markers. For example, aldehyde dehydrogenase (ALDH) activity is routinely used as a marker for CSCs. It should be appreciated by those in the art that other CSC markers may be used. ALDH activity was assessed by FACS analysis in MCF7 cells cultured for 72 hours in normoxia (21% 02) or hypoxia (1% 02). The ALDEFLUOR kit (StemCell Technologies) was used to isolate the population with high ALDH enzymatic activity by FACS (Fortessa, BD Bioscence). Briefly, 1×10^5 MCF7 cells were incubated in 1 ml ALDEFLUOR assay buffer containing ALDH substrate (5 μl/ml) for 40 minutes at 37° C. In each experiment, a sample of cells was stained under identical conditions with 30 μM of diethylaminobenzaldehyde (DEAB), a specific ALDH inhibitor, as a negative control. The ALDEFLUOR-positive population was established in according to the manufacturer's instructions and was evaluated in 3×10^4 cells. Data analysis was performed using FlowJo software (Tree star Inc.).

[4] = tested on: MCF7 cells; experiment: Mitochondrial mass by FACS with MitoTracker Deep-Red-FM; settings: increasing concentrations 0, 1, 2.5 and 5 mM; FIG. 11A
Protocol: The inventors examined the effects of chronic hypoxia and oxidative stress on the propagation of breast CSCs using MCF7 cells as a model system. It should be appreciated that other model systems may be used. Briefly, MCF7 cells were obtained from ATCC and cultured in DMEM (Sigma Aldrich). For hypoxic testing, MCF7 cells were cultured in low glucose DMEM in a multi-gas N2/CO2 hypoxic chamber at 1% 02. In parallel, MCF7 cells were cultured in low glucose DMEM at 21% 02 to serve as a normoxic control. […] Next, the MCF7 cells were trypsinized and subjected to fluorescence-activated cell sorting (FACS) with MitoTracker Deep-Red-FM (Life Technologies). MitoTracker Deep Red localizes to mitochondria regardless of mitochondrial membrane potential. Cells were incubated with pre-warmed MitoTracker staining solution (diluted in PBS/CM to a final concentration of 10 nM) for 30-60 min at 37° C. All subsequent steps were performed in the dark. Cells were washed in PBS, harvested, re-suspended in 300 μL of PBS and then analyzed by flow cytometry (Fortessa, BD Bioscience). Data analysis was performed using FlowJo software (Tree star Inc.). […] FIG. 2F is a representative FACS tracing showing 96 hours of hypoxia increased mitochondrial mass. The effects of hypoxia treatment were confirmed using immunoblot analysis with TOMM20, a marker of mitochondrial mass.

SMILES: O=CC[C@@H](O)[C@H](O)[C@H](O)CO [2-DG, 2-deoxy-D-glucose]
IC50 [1]: 1000 µM | Valproic acid-augmented CSC propagation (mammosphere formation) [1]: sufficient to inhibit | IC50 ([2]; Table 3, values in mM): 10 to 20 mM

SMILES: CC[C@H]1OC(=O)[C@H](C)[C@@H](O[C@H]2C[C@@](C)(OC)[C@@H](O)[C@H](C)O2)[C@H](C)[C@@H](O[C@@H]2O[C@H](C)C[C@H](N(C)C)[C@H]2O)[C@](C)(O)C[C@@H](C)CN(C)[C@H](C)[C@@H](O)[C@]1(C)O [Azithromycin]
IC50 ([2]; Table 3, values in mM): 0.05 to 0.1 mM

SMILES: C[C@H]1c2cccc(O)c2C(=O)C2=C(O)[C@]3(O)C(=O)C(C(N)=O)=C(O)[C@@H](N(C)C)[C@@H]3[C@@H](O)[C@@H]21 [Doxycycline]
IC50 ([2]; Table 3, values in mM): 0.005 mM

SMILES: C1CCC(C(CC2CCCCN2)C2CCCCC2)CC1 (stereo not shown) [Perhexiline]
basal and Valproic acid-augmented CSC propagation (mammosphere formation) [1]: inhibit | IC50 ([2]; Table 3, values given with nM): < 0.0001 mM

SMILES: O=C1O[C@H]([C@@H](O)CO)C(O)=C1O [Vitamin C, ascorbic acid]
IC50 [1]: ~500 µM | Valproic acid-augmented CSC propagation (mammosphere formation) [1]: sufficient to inhibit | potency under Valproic acid-augmented conditions compared to basal conditions ([1]; versus previously published results under basal conditions (Bonuccelli et al. 2017)): two times as potent | IC50 ([2]; Table 3, values in mM): 1 mM

SMILES: CC(=O)O[C@H]1C(=O)[C@@]2(C)[C@H]([C@H](OC(=O)c3ccccc3)[C@]3(O)C[C@H](OC(=O)[C@H](O)[C@@H](NC(=O)c4ccccc4)c4ccccc4)C(C)=C1C3(C)C)[C@]1(OC(C)=O)CO[C@@H]1C[C@@H]2O [Paclitaxel]
CSC resistance to treatment (measured by mammosphere formation) ([1]; MCF7 cells, FIGS. 5A-B): a fraction of CSCs is resistant

SMILES: COc1nc2ccc(Br)cc2cc1[C@@H](c1ccccc1)[C@@](O)(CCN(C)C)c1cccc2ccccc12 [Bedaquiline]
IC50 ([2]; Table 3, values in mM): 0.001 mM

SMILES: CCCC(CCC)C(=O)O [Valproic acid]
increase in ALDH activity [3]: > 1.5 fold | mammosphere formation ([1]; MCF7 cells, FIG. 11B): increases | increase in mitochondrial mass [4]: up to 3 fold

The next lines start with results.

IC50 ([2]; Table 3, values in mM): 0.01 to 0.05 mM
SMILES: CC(C)(C)C(O)/C=C/c1ccc2c(c1)OCO2 (stereo not shown) [Stiripentol]

IC50 ([2]; Table 3, values in mM): 0.001 mM
SMILES: COc1ccc2cc3[n+](cc2c1OC)CCc1cc2c(cc1-3)OCO2 [Berberine]

IC50 ([2]; Table 3, values in mM): 0.0005 to 0.001 mM
SMILES: CNC(=O)c1cc(Oc2ccc(NC(=O)Nc3ccc(Cl)c(C(F)(F)F)c3)cc2)ccn1 [Sorafenib]

IC50 [2]: < 0.025 mM
SMILES: CCN(CC)CCCC(C)Nc1ccnc2cc(Cl)ccc12 (stereo not shown) [Chloroquine]

IC50 ([2]; Table 3, values given with nM): 0.0005 mM
SMILES: CCc1c2c(nc3ccc(OC(=O)N4CCC(N5CCCCC5)CC4)cc13)-c1cc3c(c(=O)n1C2)COC(=O)[C@]3(O)CC [Irinotecan]

IC50 ([2]; Table 3, values in mM): < 0.2 mM
SMILES: CCOC(=O)[C@@]1(CCCCCCOc2ccc(Cl)cc2)CO1 [Etomoxir]
basal and Valproic acid-augmented CSC propagation (mammosphere formation) [1]: inhibit

IC50 ([2]; Table 3, values given with nM): 0.0001 mM
SMILES: O=C(Nc1ccc([N+](=O)[O-])cc1Cl)c1cc(Cl)ccc1O [Niclosamide]

IC50 ([2]; Table 3, values in mM): 0.001 mM
SMILES: O=C1C(O)=C([C@H]2CC[C@H](c3ccc(Cl)cc3)CC2)C(=O)c2ccccc21 [Atovaquone]
